Experimental data taken from patent publication US20250019374A1, “PROTEIN TYROSINE PHOSPHATASE INHIBITORS AND METHODS OF USE THEREOF” (Calico Life Sciences LLC, priority 2021, published 2025).
Like-named read-outs stand apart in the source and are kept apart here.

Columns and labels:
[1] = target: His tagged PTPN2 (TC45) protein (Homo sapiens (Human), UniProt P17706); experiment: PTPN2 Mobility Shift Assay (MSA); format: biochemical; settings: for Dihydrobenzofuran or Indoline x-fold>potency biochemical: x-fold versus corresponding chromane comparator, PTPN2 MSA
Experimental: Example III-1: Mobility Shift Assay (MSA) Used to Determine Potency of PTPN2 Inhibitors
Compound activity was determined using in house His tagged PTPN2 (TC45) protein (SEQ ID NO: 1) in an in vitro enzymatic reaction. The enzymatic assay used to determine activity was a mobility shift assay using a LabChip EZ Reader by Caliper Life Sciences. The enzymatic reaction was carried out in assay buffer (50 mM HEPES pH 7.5, 1 mM EGTA, 10 mM EDTA, 0.01% Tween® 20, and 2 mM DTT). The compounds were dispensed on a white 384 well ProxiPlate™ (PerkinElmer Catalog #6008289) plate using the Labcyte Echo at varying concentrations (12 point, 1:3 dilution). The enzyme (at 0.5 nM) was incubated with compound for 10 minutes at room temperature. Thereafter, the substrate (phosphorylated insulin receptor probe sequence: ((OG488)-(NH—CH2—CH2—O—CH2—CH2—O—CH2—CO)-T-R-D-I—(PY)-E-T-D-Y—Y—R—K—K—NH2) (SEQ ID NO: 2) was added at 2 μM to the plates and incubated for another 10 minutes at room temperature. Finally, a quench solution (water and 4-bromo-3-(2-oxo-2-propoxyethoxy)-5-(3-{[1-(phenylmethanesulfonyl)piperidin-4-yl]amino}phenyl)thiophene-2-carboxylic acid) was added to the plates, which were then run on the EZ Reader (excitation 488 nm, emission 530 nm) to measure % conversion (the amount of phosphorylated substrate which was de-phosphorylated by PTPN2). […] The % inhibition was then used to calculate the IC50 values.

[2] = system: IFNγ-induced STAT1 phosphorylation (pSTAT1) in B16F10 cells; experiment: B16F10 Phospho-STAT1 HTRF proximal pharmacodynamic (PD) assay; format: cell-based, murine; settings: for EC50: B16-F10, B16F10 cells; for Dihydrobenzofuran or Indoline x-fold>potency cellular: x-fold versus corresponding chromane comparator, B16F10 pSTAT1
Experimental: Example III-3: B16F10 (Murine Melanoma Cells) Phospho-STAT1 HTRF Proximal Pharmacodynamic (PD) Assay
B16F10 cells were grown and maintained in high glucose DMEM (Gibco, Catalog^#11965-092, Dun Laoghaire Co Dublin) supplemented with 10% fetal bovine serum (Gibco, Catalog^#10082-139, Dun Laoghaire Co Dublin). The cells were pelleted and resuspended in high glucose DMEM without phenol red (Gibco, Catalog^#11054-020, Dun Laoghaire Co Dublin), supplemented with 10% fetal bovine serum and plated in a 384 well Corning plate (product^#3765, Corning, NY) at 11,000 cells per well in a volume of 20 μL. The cells were dosed with the compounds of interest using an Echo Liquid Handler (Beckman Coulter, Brea, CA) at 50 μM top dose with 3-fold dilutions down to 0.002679 μM for a 10-point dose response. The plate was incubated for 3 hours at 37° C. and subsequently treated with recombinant mouse IFNγ (R&D Systems, Catalog^#485-MI, Minneapolis, MN; 100 nM final concentration) for 10 minutes at 37° C. to induce STAT1 phosphorylation followed by 3.3 μM staurosporine treatment for 1 hour at 37° C. to terminate phosphorylation. Media was then aspirated and 20 μL of 1× lysis buffer/blocking reagent (Cisbio Phospho-STAT1 kit, part^# 63ADK026PEH, Bedford, MA) was added. The plate was placed on a plate shaker for 30 minutes at room temperature, sealed, and stored at −80° C. until needed. To thaw, the plate was placed on shaker at room temperature until completely thawed while the antibody master mix was made (1:40 Phospho-STAT1 Eu Cryptate antibody, 1:40 Phospho-STAT d2 antibody, with the detection buffer; Cisbio Phospho-STAT1 kit, part^#63ADK026PEH, Bedford, MA). The antibody master mix was then dispensed at 4 μL per well into a 384 ProxiPlate Plus (PerkinElmer, part^#6008289, Waltham, MA) and 16 μL of lysate was added from the Corning plate to the Proxiplate using a VIAFLO 384 (INTEGRA). The plate was incubated for 3 hours at room temperature and read on an EnVision® (Perkin Elmer) plate reader with laser excitation at 335 nm and emission at 665 nm. Dotmatics Studies (Bishop's Stortford, UK) was utilized to generate all dose-response curves and calculate EC50s and are shown in Table 2.

[3] = target: His tagged full-length PTPN1 protein (Homo sapiens (Human), UniProt P18031); experiment: PTPN1 Mobility Shift Assay (MSA); format: biochemical; settings: enzyme 0.5 nM, substrate 2 μM
Experimental: Example III-2: Mobility Shift Assay (MSA) Used to Determine Potency of PTPN1 Inhibitors
Compound activity was determined using in house His tagged full-length PTPN1 protein (SEQ ID NO: 3) in an in vitro enzymatic reaction. The enzymatic assay used to determine activity is a mobility shift assay using a LabChip EZ Reader by Caliper Life Sciences. The enzymatic reaction was carried out in assay buffer (50 mM HEPES pH 7.5, 1 mM EGTA, 10 mM EDTA, 0.01% Tween® 20, and 2 mM DTT). The compounds were dispensed on a white 384 well ProxiPlate™ (PerkinElmer Cat ^#6008289) plate using a Labcyte Echo® liquid handler at varying concentrations (12 point, 1:3 dilution). The enzyme (at 0.5 nM) was incubated with compound for 10 minutes at room temperature. Thereafter, the substrate (phosphorylated insulin receptor probe sequence: ((OG488)-(NH—CH2—CH2—O—CH2—CH2—O—CH2—CO)-T-R-D-I—(PY)-E-T-D-Y—Y—R—K—K—NH2) (SEQ ID NO: 2) was added at 2 μM to the plates and incubated for another 10 minutes at room temperature. Finally, a quench solution (water and 4-bromo-3-(2-oxo-2-propoxyethoxy)-5-(3-{[1-(phenylmethanesulfonyl)piperidin-4-yl]amino}phenyl)thiophene-2-carboxylic acid) was added to the plates, which were then run on the EZ Reader (excitation 488 nm, emission 530 nm) to measure % conversion (the amount of phosphorylated substrate which was de-phosphorylated by PTPN1). […] The % inhibition was then used to calculate the IC50 values.

[4] = Table 3, dihydrobenzofuran or indoline compound (X = O or NH)
[5] = 3 hours compound, 100 nM mouse IFNγ 10 minutes, read-out: B16F10 IFNγ Induced pSTAT1 EC50
[6] = Mus musculus, Table 3, dihydrobenzofuran or indoline compound (X = O or NH), read-out: pSTAT1 EC50

Chain of His tagged full-length PTPN1 protein (P18031 whole entry): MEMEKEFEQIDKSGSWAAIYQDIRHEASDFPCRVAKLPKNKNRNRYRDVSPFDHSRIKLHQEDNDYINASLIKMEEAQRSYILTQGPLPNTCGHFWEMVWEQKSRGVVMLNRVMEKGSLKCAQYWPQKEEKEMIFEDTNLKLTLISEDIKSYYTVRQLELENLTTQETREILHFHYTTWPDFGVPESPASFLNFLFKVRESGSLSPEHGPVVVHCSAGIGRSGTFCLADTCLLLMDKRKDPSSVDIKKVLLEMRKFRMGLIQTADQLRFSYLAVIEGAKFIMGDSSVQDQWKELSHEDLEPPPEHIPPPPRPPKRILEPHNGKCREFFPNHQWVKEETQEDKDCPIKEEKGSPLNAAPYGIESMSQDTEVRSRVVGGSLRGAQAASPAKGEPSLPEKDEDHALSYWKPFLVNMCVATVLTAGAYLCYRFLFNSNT
Chain of His tagged PTPN2 (TC45) protein (P17706 other isoform, or with tags, fused parts or gaps): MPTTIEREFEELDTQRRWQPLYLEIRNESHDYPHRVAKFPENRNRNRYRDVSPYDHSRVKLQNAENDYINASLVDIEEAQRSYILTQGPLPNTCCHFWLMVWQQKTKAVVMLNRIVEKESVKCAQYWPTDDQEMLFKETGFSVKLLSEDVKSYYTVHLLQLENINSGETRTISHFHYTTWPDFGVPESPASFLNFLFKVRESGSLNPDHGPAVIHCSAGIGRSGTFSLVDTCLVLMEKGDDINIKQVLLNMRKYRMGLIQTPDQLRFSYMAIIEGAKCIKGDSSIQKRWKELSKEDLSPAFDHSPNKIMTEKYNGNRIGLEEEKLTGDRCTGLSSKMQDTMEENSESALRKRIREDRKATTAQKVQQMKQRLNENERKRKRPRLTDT

Compound	EC50 [2, 5] [nM]	EC50 [2, 6] [nM]	IC50 [3] [nM]	IC50 [1, 4] [nM]	IC50 ([1]; enzyme 0.5 nM, substrate 2 μM) [nM]	Dihydrobenzofuran or Indoline x-fold>potency biochemical [1]	Dihydrobenzofuran or Indoline x-fold>potency cellular [2]
CC(C)CNC[C@@H]1Cc2c(cc(O)c(N3CC(=O)NS3(=O)=O)c2F)N1 [Compound 132, 5-[(2S)-4-fluoro-6-hydroxy-2-{[(2-methylpropyl)amino]methyl}-2,3-dihydro-1H-indol-5-yl]-1λ^6,2,5-thiadiazolidine-1,1,3-trione]	4690		> 100		10 to 100		
CC(C)CNC[C@H]1Cc2c(cc(O)c(N3CC(=O)NS3(=O)=O)c2F)N1 [Compound 133, 5-[(2R)-4-fluoro-6-hydroxy-2-{[(2-methylpropyl)amino]methyl}-2,3-dihydro-1H-indol-5-yl]-1λ^6,2,5-thiadiazolidine-1,1,3-trione]	1240		10 to 100		10 to 100		
CCC(CC)CNC[C@H]1Cc2c(cc(O)c(N3CC(=O)NS3(=O)=O)c2F)N1 [Compound 134, 5-[(2R)-2-{[(2-ethylbutyl)amino]methyl}-4-fluoro-6-hydroxy-2,3-dihydro-1H-indol-5-yl]-1λ^6,2,5-thiadiazolidine-1,1,3-trione]	947		10 to 100		10 to 100		
CCCNC[C@H]1Cc2c(cc(O)c(N3CC(=O)NS3(=O)=O)c2F)N1 [Compound 135, 5-{(2R)-4-fluoro-6-hydroxy-2-[(propylamino)methyl]-2,3-dihydro-1H-indol-5-yl}-1λ^6,2,5-thiadiazolidine-1,1,3-trione]	756		10 to 100		10 to 100		
COCCNC[C@H]1Cc2c(cc(O)c(N3CC(=O)NS3(=O)=O)c2F)N1 [Compound 136, 5-[(2R)-4-fluoro-6-hydroxy-2-{[(2-methoxyethyl)amino]methyl}-2,3-dihydro-1H-indol-5-yl]-1λ^6,2,5-thiadiazolidine-1,1,3-trione]	1230		10 to 100		10 to 100		
O=C1CN(c2c(O)cc3c(c2F)C[C@H](CNCC2CCC2)N3)S(=O)(=O)N1 [Compound 137, 5-[(2R)-2-{[(cyclobutylmethyl)amino]methyl}-4-fluoro-6-hydroxy-2,3-dihydro-1H-indol-5-yl]-1λ^6,2,5-thiadiazolidine-1,1,3-trione]	904		10 to 100		10 to 100		

Further lines, with some results ahead:

EC50 [2, 5] [nM]	EC50 [2, 6] [nM]	IC50 [3] [nM]	Compound	IC50 [1, 4] [nM]	IC50 ([1]; enzyme 0.5 nM, substrate 2 μM) [nM]	Dihydrobenzofuran or Indoline x-fold>potency biochemical [1]	Dihydrobenzofuran or Indoline x-fold>potency cellular [2]
3090	3090	10 to 100	O=C1CN(c2c(O)cc3c(c2F)C[C@H](CNCCC2CCOCC2)O3)S(=O)(=O)N1 [Compound 125, 5-[(2R)-4-fluoro-6-hydroxy-2-({[2-(oxan-4-yl)ethyl]amino}methyl)-2,3-dihydro-1-benzofuran-5-yl]-1λ^6,2,5-thiadiazolidine-1,1,3-trione]	8.32	< 10	2.2	10.4
10800	10800	10 to 100	O=C1CN(c2c(O)cc3c(c2F)C[C@H](CNCCCc2ccccc2)O3)S(=O)(=O)N1 [Compound 127, 5-[(2R)-4-fluoro-6-hydroxy-2-{[(3-phenylpropyl)amino]methyl}-2,3-dihydro-1-benzofuran-5-yl]-1λ^6,2,5-thiadiazolidine-1,1,3-trione]	4.05	< 10	4.7	>4.6
> 50000	> 50000	10 to 100	CC1=C(CCNC[C@H]2Cc3c(cc(O)c(N4CC(=O)NS4(=O)=O)c3F)O2)C(C)(C)CCC1 [Compound 128, 5-[(2R)-4-fluoro-6-hydroxy-2-({[2-(2,6,6-trimethylcyclohex-1-en-1-yl)ethyl]amino}methyl)-2,3-dihydro-1-benzofuran-5-yl]-1λ^6,2,5-thiadiazolidine-1,1,3-trione]	1.81	< 10	12.5	~1.0
1290	1290	10 to 100	O=C1CN(c2c(O)cc3c(c2F)C[C@H](CNCC2CC(c4ccccc4)C2)O3)S(=O)(=O)N1 (stereo partly drawn) [Compound 129, 5-[(2R)-4-fluoro-6-hydroxy-2-({[(3-phenylcyclobutyl)methyl]amino}methyl)-2,3-dihydro-1-benzofuran-5-yl]-1λ^6,2,5-thiadiazolidine-1,1,3-trione]	2.51	< 10	3.3	>38.8
> 50000	> 50000	10 to 100	O=C1CN(c2c(O)cc3c(c2F)C[C@H](CNCC2CCC(C(F)(F)F)CC2)O3)S(=O)(=O)N1 (stereo partly drawn) [Compound 130, 5-{(2R)-4-fluoro-6-hydroxy-2-[({[4-(trifluoromethyl)cyclohexyl]methyl}amino)methyl]-2,3-dihydro-1-benzofuran-5-yl}-1λ^6,2,5-thiadiazolidine-1,1,3-trione]	4.38	< 10	6.1	~1.0
22100	22100	10 to 100	O=C1CN(c2c(O)cc3c(c2F)C[C@H](CNCC2(CF)CC2)O3)S(=O)(=O)N1 [Compound 131, 5-{(2R)-4-fluoro-2-[({[1-(fluoromethyl)cyclopropyl]methyl}amino)methyl]-6-hydroxy-2,3-dihydro-1-benzofuran-5-yl}-1λ^6,2,5-thiadiazolidine-1,1,3-trione]	20.9	10 to 100	2.4	>2.3
